According to publication PMC6979384, “Characterization of the plant homeodomain (PHD) reader family for their histone tail interactions” (Epigenetics & Chromatin, 2020):

Experiments:
Assay in all cases: Histone peptide microarray
Format in all cases: binding, human
AIRE (PP) = conditions: sheet "Array Heatmap", total n = 4; for Array Heatmap value (peptide array signal): AIRE (PP), each array performed twice
Method in brief: (§1)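 Steps: express and purify GST-tagged PHD reader; incubate 0.5 μM protein on a peptide microarray (293 histone peptides, single or combined PTMs) following an optimized protocol; average signal across 4 replicates.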

BAZ2B = conditions: sheet "Array Heatmap", total n = 4; for Array Heatmap value (peptide array signal): BAZ2B, each array performed twice
Method in brief: as §1

BPTF (PB) = conditions: sheet "Array Heatmap", total n = 4; for Array Heatmap value (peptide array signal): BPTF (PB), each array performed twice
Method in brief: as §1

CHD4 (PPCC) = conditions: sheet "Array Heatmap", total n = 4; for Array Heatmap value (peptide array signal): CHD4 (PPCC), each array performed twice
Method in brief: as §1

CHD5 (PCC) = conditions: sheet "Array Heatmap", total n = 4; for Array Heatmap value (peptide array signal): CHD5 (PCC), each array performed twice
Method in brief: as §1

CHD5 (PPCC) = conditions: sheet "Array Heatmap", total n = 4; for Array Heatmap value (peptide array signal): CHD5 (PPCC), each array performed twice
Method in brief: as §1

DIDO1 = conditions: sheet "Array Heatmap", total n = 4; for Array Heatmap value (peptide array signal): DIDO1, each array performed twice
Method in brief: as §1

DPF2 (PPC2W2) = conditions: sheet "Array Heatmap", total n = 4; for Array Heatmap value (peptide array signal): DPF2 (PPC2W2), each array performed twice
Method in brief: as §1

ING1 = conditions: sheet "Array Heatmap", total n = 4; for Array Heatmap value (peptide array signal): ING1, each array performed twice
Method in brief: as §1

ING2 = conditions: sheet "Array Heatmap", total n = 4; for Array Heatmap value (peptide array signal): ING2, each array performed twice
Method in brief: as §1

ING3 = conditions: sheet "Array Heatmap", total n = 4; for Array Heatmap value (peptide array signal): ING3, each array performed twice
Method in brief: as §1

ING4 = conditions: sheet "Array Heatmap", total n = 4; for Array Heatmap value (peptide array signal): ING4, each array performed twice
Method in brief: as §1

ING5 = conditions: sheet "Array Heatmap", total n = 4; for Array Heatmap value (peptide array signal): ING5, each array performed twice
Method in brief: as §1

KDM4C (TTP) = conditions: sheet "Array Heatmap", total n = 4; for Array Heatmap value (peptide array signal): KDM4C (TTP), each array performed twice
Method in brief: as §1

KDM5A (1) = conditions: sheet "Array Heatmap", total n = 4; for Array Heatmap value (peptide array signal): KDM5A (1), each array performed twice
Method in brief: as §1

KDM5A (3) = conditions: sheet "Array Heatmap", total n = 4; for Array Heatmap value (peptide array signal): KDM5A (3), each array performed twice
Method in brief: as §1

KDM5B (1) = conditions: sheet "Array Heatmap", total n = 4; for Array Heatmap value (peptide array signal): KDM5B (1), each array performed twice
Method in brief: as §1

KDM5B (3) = conditions: sheet "Array Heatmap", total n = 4; for Array Heatmap value (peptide array signal): KDM5B (3), each array performed twice
Method in brief: as §1

KDM7A = conditions: sheet "Array Heatmap", total n = 4; for Array Heatmap value (peptide array signal): KDM7A, each array performed twice
Method in brief: as §1

MLL5 = conditions: sheet "Array Heatmap", total n = 4; for Array Heatmap value (peptide array signal): MLL5, each array performed twice
Method in brief: as §1

MORC3 (CW) = conditions: sheet "Array Heatmap", total n = 4; for Array Heatmap value (peptide array signal): MORC3 (CW), each array performed twice
Method in brief: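 GST-tagged PHD finger readers were expressed, purified and applied at 0.5 μM to a microarray of 293 synthetic histone peptides carrying single or combinatorial PTMs, using an optimized protocol. Binding signals are averages with standard deviation from 4 replicates.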

PHF13 = conditions: sheet "Array Heatmap", total n = 4; for Array Heatmap value (peptide array signal): PHF13, each array performed twice
Method in brief: as §1

PHF21A = conditions: sheet "Array Heatmap", total n = 4; for Array Heatmap value (peptide array signal): PHF21A, each array performed twice
Method in brief: as §1

PHF23 = conditions: sheet "Array Heatmap", total n = 4; for Array Heatmap value (peptide array signal): PHF23, each array performed twice
Method in brief: as §1

PHF2 = conditions: sheet "Array Heatmap", total n = 4; for Array Heatmap value (peptide array signal): PHF2, each array performed twice
Method in brief: as §1

PHF8 = conditions: sheet "Array Heatmap", total n = 4; for Array Heatmap value (peptide array signal): PHF8, each array performed twice
Method in brief: as §1

PHRF1 (RP) = conditions: sheet "Array Heatmap", total n = 4; for Array Heatmap value (peptide array signal): PHRF1 (RP), each array performed twice
Method in brief: as §1

RAG2 = conditions: sheet "Array Heatmap", total n = 4; for Array Heatmap value (peptide array signal): RAG2, each array performed twice
Method in brief: as §1

SP140L = conditions: sheet "Array Heatmap", total n = 4; for Array Heatmap value (peptide array signal): SP140L, each array performed twice
Method in brief: as §1

TAF3 = conditions: sheet "Array Heatmap", total n = 4; for Array Heatmap value (peptide array signal): TAF3, each array performed twice
Method in brief: as §1

TRIM66 (PB) = conditions: sheet "Array Heatmap", total n = 4; for Array Heatmap value (peptide array signal): TRIM66 (PB), each array performed twice
Method in brief: as §1

[1] = GST-tagged reader, histone peptide array

## H3K9pro: H3 1-20 [Peptide H3K9pro]
AIRE (PP)
  Array Heatmap value (peptide array signal): 0.411
BAZ2B
  Array Heatmap value (peptide array signal): 0.4231
BPTF (PB)
  Array Heatmap value (peptide array signal): 0.3368
CHD4 (PPCC)
  Array Heatmap value (peptide array signal): 0.5901
CHD5 (PCC)
  Array Heatmap value (peptide array signal): 0.7611
CHD5 (PPCC)
  Array Heatmap value (peptide array signal): 0.5229
DIDO1
  Array Heatmap value (peptide array signal): 0.6439
DPF2 (PPC2W2)
  Array Heatmap value (peptide array signal): 0.7007
ING1
  Array Heatmap value (peptide array signal): 0.5254
ING2
  Array Heatmap value (peptide array signal): 0.6039
ING3
  Array Heatmap value (peptide array signal): 0.4734
ING4
  Array Heatmap value (peptide array signal): 0.4451
ING5
  Array Heatmap value (peptide array signal): 0.3309
KDM4C (TTP)
  Array Heatmap value (peptide array signal): 0.4589
KDM5A (1)
  Array Heatmap value (peptide array signal): 0.4409
KDM5A (3)
  Array Heatmap value (peptide array signal): 0.4398
KDM5B (1)
  Array Heatmap value (peptide array signal): 0.6726
KDM5B (3)
  Array Heatmap value (peptide array signal): 0.4382
KDM7A
  Array Heatmap value (peptide array signal): 0.3118
MLL5
  Array Heatmap value (peptide array signal): 0.5292
MORC3 (CW)
  Array Heatmap value (peptide array signal): 0.4445
PHF13
  Array Heatmap value (peptide array signal): 0.5854
PHF21A
  Array Heatmap value (peptide array signal): 0.4435
PHF23
  Array Heatmap value (peptide array signal): 0.5285
PHF2
  Array Heatmap value (peptide array signal): 0.4692
PHF8
  Array Heatmap value (peptide array signal): 0.3451
PHRF1 (RP)
  Array Heatmap value (peptide array signal): 0.5869
RAG2
  Array Heatmap value (peptide array signal): 0.2419
SP140L
  Array Heatmap value (peptide array signal): 0.3673
TAF3
  Array Heatmap value (peptide array signal): 0.2557
TRIM66 (PB)
  Array Heatmap value (peptide array signal): 0.5807

## H3K14ac (1-32): H3 1-32
AIRE (PP)
  Array Heatmap value (peptide array signal): 0.6762
BAZ2B
  Array Heatmap value (peptide array signal): 0.5612
BPTF (PB)
  Array Heatmap value (peptide array signal): 0.3702
CHD4 (PPCC)
  Array Heatmap value (peptide array signal): 0.5914
CHD5 (PCC)
  Array Heatmap value (peptide array signal): 0.9008
CHD5 (PPCC)
  Array Heatmap value (peptide array signal): 0.6129
DIDO1
  Array Heatmap value (peptide array signal): 0.6524
DPF2 (PPC2W2)
  Array Heatmap value (peptide array signal): 0.88
ING1
  Array Heatmap value (peptide array signal): 0.5563
ING2
  Array Heatmap value (peptide array signal): 0.6065
ING3
  Array Heatmap value (peptide array signal): 0.5035
ING4
  Array Heatmap value (peptide array signal): 0.5113
ING5
  Array Heatmap value (peptide array signal): 0.3965
KDM4C (TTP)
  Array Heatmap value (peptide array signal): 0.5844
KDM5A (1)
  Array Heatmap value (peptide array signal): 0.5739
KDM5A (3)
  Array Heatmap value (peptide array signal): 0.5824
KDM5B (1)
  Array Heatmap value (peptide array signal): 0.7332
KDM5B (3)
  Array Heatmap value (peptide array signal): 0.5322
KDM7A
  Array Heatmap value (peptide array signal): 0.4771
MLL5
  Array Heatmap value (peptide array signal): 0.5315
MORC3 (CW)
  Array Heatmap value (peptide array signal): 0.4902
PHF13
  Array Heatmap value (peptide array signal): 0.6445
PHF21A
  Array Heatmap value (peptide array signal): 0.5508
PHF23
  Array Heatmap value (peptide array signal): 0.5387
PHF2
  Array Heatmap value (peptide array signal): 0.4742
PHF8
  Array Heatmap value (peptide array signal): 0.4423
PHRF1 (RP)
  Array Heatmap value (peptide array signal): 0.5867
RAG2
  Array Heatmap value (peptide array signal): 0.2609
SP140L
  Array Heatmap value (peptide array signal): 0.4015
TAF3
  Array Heatmap value (peptide array signal): 0.3178
TRIM66 (PB)
  Array Heatmap value (peptide array signal): 0.5901

## H3R8me2a: H3 1-20 [Peptide H3R8me2a]
AIRE (PP); [1]
  Array Heatmap signal, AIRE (PP): 0.5572
BAZ2B; [1]
  Array Heatmap signal, BAZ2B: 0.437
BPTF (PB); [1]
  Array Heatmap signal, BPTF (PB): 0.3288
CHD4 (PPCC); [1]
  Array Heatmap signal, CHD4 (PPCC): 0.5373
CHD5 (PCC); [1]
  Array Heatmap signal, CHD5 (PCC): 0.7162
CHD5 (PPCC); [1]
  Array Heatmap signal, CHD5 (PPCC): 0.5334
DIDO1; [1]
  Array Heatmap signal, DIDO1: 0.6465
DPF2 (PPC2W2); [1]
  Array Heatmap signal, DPF2 (PPC2W2): 0.6583
ING1; [1]
  Array Heatmap signal, ING1: 0.4976
ING2; [1]
  Array Heatmap signal, ING2: 0.6044
ING3; [1]
  Array Heatmap signal, ING3: 0.4474
ING4; [1]
  Array Heatmap signal, ING4: 0.4314
ING5; [1]
  Array Heatmap signal, ING5: 0.3481
KDM4C (TTP); [1]
  Array Heatmap signal, KDM4C (TTP): 0.4962
KDM5A (1); [1]
  Array Heatmap signal, KDM5A (1): 0.4494
KDM5A (3); [1]
  Array Heatmap signal, KDM5A (3): 0.6079
KDM5B (1); [1]
  Array Heatmap signal, KDM5B (1): 0.6786
KDM5B (3); [1]
  Array Heatmap signal, KDM5B (3): 0.4831
KDM7A; [1]
  Array Heatmap signal, KDM7A: 0.3419
MLL5; [1]
  Array Heatmap signal, MLL5: 0.5074
MORC3 (CW); [1]
  Array Heatmap signal, MORC3 (CW): 0.4558
PHF13; [1]
  Array Heatmap signal, PHF13: 0.5768
PHF21A; [1]
  Array Heatmap signal, PHF21A: 0.4488
PHF23; [1]
  Array Heatmap signal, PHF23: 0.5221
PHF2; [1]
  Array Heatmap signal, PHF2: 0.4368
PHF8; [1]
  Array Heatmap signal, PHF8: 0.3345
PHRF1 (RP); [1]
  Array Heatmap signal, PHRF1 (RP): 0.6824
RAG2; [1]
  Array Heatmap signal, RAG2: 0.2386
SP140L; [1]
  Array Heatmap signal, SP140L: 0.3504
TAF3; [1]
  Array Heatmap signal, TAF3: 0.2542
TRIM66 (PB); [1]
  Array Heatmap signal, TRIM66 (PB): 0.5681
